From ChEMBL document CHEMBL1134247, “Glycosidase inhibition by cyclic sulfonium compounds” (Bioorg Med Chem Lett, 2001)
Values belong to the compound of their own block, whether it stands above or below them.

Experiments:
[1] = Inhibitory concentration of compound against Alpha-mannosidase of Almond; not active; design: species or system Prunus dulcis
[2] = Inhibitory concentration of compound against Alpha-glucosidase from Baker's yeast; not active at less than 50% inhibition; design: species or system Saccharomyces cerevisiae
[3] = Inhibitory concentration of compound against Alpha-glucosidase from rice; not active at less than 50% inhibition
[4] = test system: beta-glucosidase (Prunus dulcis); test: Inhibitory concentration of compound against Beta-glucosidase from Almond;not active
[5] = Inhibitory concentration of compound against Alpha-glucosidase from B. stearothermophilus; not active at less than 50% inhibition; design: species or system Geobacillus stearothermophilus
[6] = Inhibitory concentration of compound against Alpha-glucosidase from recombinant S. cerevisiae; not active at less than 50% inhibition; design: species or system Saccharomyces cerevisiae
[7] = Inhibitory concentration of compound against Alpha-glucosidase from rice
Beta-galactosidase = Beta-galactosidase (Escherichia coli, UniProt Q8VNN2); test: Inhibitory effect towards Beta-galactosidase at a concentration of 2 mM from E. coli; no inhibitory effect
Chain of Beta-galactosidase (Q8VNN2 whole entry): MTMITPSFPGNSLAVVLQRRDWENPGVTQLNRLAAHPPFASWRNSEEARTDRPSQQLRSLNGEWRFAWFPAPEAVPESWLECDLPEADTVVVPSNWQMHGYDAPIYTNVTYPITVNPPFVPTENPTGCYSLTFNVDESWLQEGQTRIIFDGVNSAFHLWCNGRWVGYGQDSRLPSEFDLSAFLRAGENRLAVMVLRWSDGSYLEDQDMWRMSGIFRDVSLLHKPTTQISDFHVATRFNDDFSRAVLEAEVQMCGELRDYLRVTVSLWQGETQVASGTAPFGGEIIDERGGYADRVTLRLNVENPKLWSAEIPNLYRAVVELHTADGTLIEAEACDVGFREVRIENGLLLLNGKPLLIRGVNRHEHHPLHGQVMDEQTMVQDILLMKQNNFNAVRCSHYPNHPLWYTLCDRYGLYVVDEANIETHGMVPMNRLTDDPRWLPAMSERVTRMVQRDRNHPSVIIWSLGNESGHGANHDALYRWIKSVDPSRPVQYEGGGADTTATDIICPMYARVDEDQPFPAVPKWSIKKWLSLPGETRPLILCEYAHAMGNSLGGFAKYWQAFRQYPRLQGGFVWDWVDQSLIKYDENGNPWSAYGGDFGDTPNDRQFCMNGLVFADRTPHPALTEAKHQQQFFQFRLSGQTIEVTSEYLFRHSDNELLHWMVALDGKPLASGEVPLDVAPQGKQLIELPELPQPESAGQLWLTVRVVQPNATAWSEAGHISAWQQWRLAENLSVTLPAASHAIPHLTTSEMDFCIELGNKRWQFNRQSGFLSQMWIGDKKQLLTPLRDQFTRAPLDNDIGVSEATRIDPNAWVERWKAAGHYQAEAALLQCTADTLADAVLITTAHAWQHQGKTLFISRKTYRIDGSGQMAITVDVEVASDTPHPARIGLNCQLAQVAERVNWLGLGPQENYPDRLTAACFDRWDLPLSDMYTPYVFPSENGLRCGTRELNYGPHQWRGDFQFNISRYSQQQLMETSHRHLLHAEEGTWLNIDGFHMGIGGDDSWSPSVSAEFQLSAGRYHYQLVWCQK

[8] = (§1) Inhibitory concentration of compound against Alpha-mannosidase of Almond; design: species or system Prunus dulcis
[9] = test system: alpha-galactosidase (Coffea arabica); test: Inhibitory effect towards Alpha-galactosidase at a concentration of 2 mM from coffee beans; no inhibitory effect
Prunus dulcis = test: as §1
[10] = Inhibitory concentration of compound against Alpha-glucosidase in Bacillus stearothermophilus; design: species or system Geobacillus stearothermophilus
[11] = Inhibitory concentration of compound against Alpha-glucosidase in Baker's yeast; not active at less than 50% inhibition; design: species or system Saccharomyces cerevisiae
[12] = Inhibitory concentration of compound against Alpha-glucosidase in recombinant S. cerevisiae; not active; design: species or system Saccharomyces cerevisiae
[13] = Inhibitory concentration of compound against Alpha-glucosidase in rice
[14] = Inhibitory concentration of compound (10:1 ratio of 10a/10b) against Alpha-mannosidase of Almond; design: species or system Prunus dulcis
[15] = Inhibitory concentration of compound (4:6 ratio of 10a/10b) against Alpha-mannosidase of Almond; design: species or system Prunus dulcis
[16] = Inhibitory concentration of compound (10:1 ratio of 10a/10b) against Alpha-glucosidase from Bacillus stearothermophilus; design: species or system Geobacillus stearothermophilus
[17] = Inhibitory concentration of compound (10:1 ratio of 10a/10b) against Alpha-glucosidase from Baker's yeast; design: species or system Saccharomyces cerevisiae
[18] = Inhibitory concentration of compound (4:6 ratio of 10a/10b) against Alpha-glucosidase from Baker's yeast; design: species or system Saccharomyces cerevisiae
[19] = Inhibitory concentration of compound (10:1 ratio of 10a/10b) against Alpha-glucosidase from recombinant Saccharomyces cerevisiae
[20] = Inhibitory concentration of compound (4:6 ratio of 10a/10b) against Alpha-glucosidase from recombinant Saccharomyces cerevisiae
[21] = Inhibitory concentration of compound (10:1 ratio of 10a/10b) against Alpha-glucosidase from rice
[22] = Inhibitory concentration of compound (4:6 ratio of 10a/10b) against Alpha-glucosidase from rice
[23] = Inhibitory concentration of compound (4:6 ratio of 10a/10b) against Alpha-glucosidase from Bacillus stearothermophilus; design: species or system Geobacillus stearothermophilus
[24] = test system: beta-glucosidase (Prunus dulcis); test: Inhibitory concentration of compound (4:6 ratio of 10a/10b) against Beta-Glucosidase from Almond; not active
[25] = test system: beta-glucosidase (Prunus dulcis); test: Inhibitory concentration of compound (10:1 ratio of 10a/10b) against Beta-glucosidase from Almond; not active

IC50 [1]: Not Active
IC50 [2]: Not Active
IC50 [3]: Not Active
IC50 [4]: Not Active
Structure (SMILES): O=S(=O)([O-])O[C@@H](CO)[C@H](O)C[S+]1CCCC1

IC50 [5]: Not Active
IC50 [2]: Not Active
IC50 [6]: Not Active
IC50 [7]: 380 µM
IC50 (Beta-galactosidase): No effect
IC50 [8]: 3600 µM
Structure (SMILES): O=S(=O)([O-])O[C@H](CO)[C@@H](O)C[S@+]1C[C@@H](O)[C@H](O)[C@@H]1CO

IC50 [2]: Not Active
IC50 [7]: 1000 µM
IC50 (Beta-galactosidase): No effect
IC50 [9]: No effect
Structure (SMILES): O=S(=O)([O-])O[C@H](CO)[C@@H](O)C[S+]1CCCC1

IC40 (Prunus dulcis): 2100 µM
IC50 [10]: 2500 µM
IC50 [11]: Not Active
IC50 [12]: Not Active
IC50 [13]: 110 µM
Structure (SMILES): O=S(=O)([O-])O[C@@H](CO)[C@H](O)C[S@+]1C[C@@H](O)[C@H](O)[C@@H]1CO

IC50 [14]: 2100 µM
IC50 [15]: 1200 µM
IC50 [16]: 250 µM
IC50 [17]: 360 µM
IC50 [18]: 2200 µM
IC50 [19]: 490 µM
IC50 [20]: 2100 µM
IC50 [21]: 410 µM
IC50 [22]: 2000 µM
IC50 [23]: 1400 µM
IC50 [24]: Not Active
IC50 [25]: Not Active
Structure (SMILES): C[S+]1C[C@@H](O)[C@H](O)[C@H]1CO.[I-] (stereo partly specified)
